# Where two headings read alike, the source gives them in different places.
# What was measured:
# [1] = test system: HIV-1 (IIIB) in MT-4 cells; assay: microbe, parasite or virus in culture; assay type: cell-based; conditions: Human immunodeficiency virus 1, IIIB
# [2] = Liver microsomal stability, human liver microsomes; conditions: human
# Protocol: Liver Microsomal Stability Protocol
# Test compounds and one control compound (verapamil) were tested in 3 different species in duplicate sets.
# Test compound concentration: 1 uM; Protein concentration: 0.5 mg/mL (for dog, rat, and human liver microsomes); Cofactor: NADPH-Regenerating system (NRS) solution; Time-points: 2, 12, 25, 45, and 65 minutes.
# Reaction Composition (in Each Incubation Well) Contains:
# At an incubation temperature of 37° C., the reaction was started with addition of NADPH Regeneration System, at each time point, 25 uL of the reaction mixture was removed and added to a plate with 225 uL quenching solution (50% MeOH, 25% ACN, 25% H2O, and 200 nM labetalol as internal standard). After plates were vortexed, they were centrifuged for 30 minutes to remove proteins. About 100 μL supernatant was removed to a new plate and diluted with 150 μL water. About 20 μL of the mixture was injected into LC/MS/MS system to monitor the compound's response. In vitro measured t1/2 was used to calculate Clint values.
# [3] = MT4, MT-4 cells, HIV-1, read-out: MT4 EC50
SMILES,half-life at 1 uM ([2]; liver microsomes) [h],half-life at 1 uM ([2]; human liver microsomes) [h],"EC50 [1, 3] [nM]","EC50 ([1]; MT4, read-out: MT4 EC50 (nM)) [nM]"
[2H]C([2H])([2H])n1cnc(-c2cc([C@@H](COC(=O)NC(C)(C)C(F)F)N3C(=N)N[C@](C[C@]4(C)CC4(F)F)(c4ccc(-c5cnn(C(F)F)c5)cc4)C3=O)ccc2Cl)n1 [Compound 97],≥ 6.58,–,18.9,–
CC(C)(C)C[C@]1(c2ccc(-c3cnn(C(F)F)c3)cc2)NC(=N)N([C@H](COC(=O)NC2(C(F)(F)F)CC2)c2ccc(Cl)c(-c3nnn[nH]3)c2)C1=O [Compound 72],≥ 6.58,–,5710,–
CC(C)(C)C[C@]1(c2ccc(-c3cnn(C(F)F)c3)cc2)NC(=N)N([C@H](COC(=O)NC2(C(F)(F)F)CC2)c2ccc(Cl)c(-c3ccccn3)c2)C1=O [Compound 20],≥ 6.58,–,76.7,–
[H]/N=C1\N[C@](CC(C)(C)C)(c2ccc(-c3cnn(C(F)F)c3)cc2)C(=O)N1[C@H](COC(=O)NC1CC1)c1ccc(Cl)c(-c2ncn(C(F)F)n2)c1 [Compound 34],≥ 6.58,–,38.7,–
CC(C)(C)C[C@]1(c2ccc(-c3cnn(C4COC4)c3)cc2)NC(=N)N([C@H](COC(=O)NC(C)(C)C)c2ccc(Cl)c(-c3ncn[nH]3)c2)C1=O [Compound 106],–,–,101,–
CC(C)(C)C[C@]1(c2ccc(-c3cnn(C(F)F)c3)cc2)NC(=N)N([C@H](COC(=O)N2CC(C(F)F)C2)c2ccc(Cl)c(-c3ncn[nH]3)c2)C1=O [Compound 99],–,–,65.7,–
[H]/N=C1\N[C@](CC(C)(C)C)(c2ccc(OC)cc2F)C(=O)N1[C@H](COC(=O)N(C)C)c1ccc(Cl)c(-c2ncccc2F)c1 [Compound 10],–,–,–,91.9
CC(C)(C)C[C@]1(c2ccc(-c3cnn(C(F)F)c3)cc2)NC(=N)N([C@H](COC(=O)N[C@@H]2C[C@H]2C(F)F)c2ccc(Cl)c(-n3ncnc3C(F)F)c2)C1=O [Compound 333],–,–,10.5,–
CC(C)(F)C[C@]1(c2ccc(-c3cnccn3)cc2)NC(=N)N([C@H](COC(=O)NC2(C(F)(F)F)CC2)c2ccc(Cl)c(-n3ncnc3C(F)F)c2)C1=O [Compound 328],–,–,22.4,–
CC(C)(C)C[C@]1(c2ccc(-c3ccn(C4CC4)n3)cc2F)NC(=N)N([C@H](COC(=O)NC2(C(F)(F)F)CC2)c2ccc(Cl)c(-n3ncnc3C(F)F)c2)C1=O [Compound 215],–,–,18.5,–
CC(C)(C)C[C@]1(c2ccc(-c3cccc(=O)[nH]3)cc2)NC(=N)N([C@H](COC(=O)NC2(C(F)(F)F)CC2)c2ccc(Cl)c(-n3cncn3)c2)C1=O [Compound 249],–,–,325,–
CC(C)(C)C[C@]1(c2ccc(-c3ccc(C(F)F)nc3)cc2F)NC(=N)N([C@H](COC(=O)NC2(C(F)(F)F)CC2)c2ccc(Cl)c(-n3ncnc3C(F)F)c2)C1=O [Compound 279],–,–,23.5,–
CC(C)(C)C[C@]1(c2ccc(-n3cncn3)cc2)NC(=N)N([C@H](COC(=O)NC2(C(F)(F)F)CC2)c2ccc(Cl)c(-n3ncnc3C(F)F)c2)C1=O [Compound 229],–,–,27.6,–
CC(C)(C)C[C@]1(c2ccc(-c3cnn(C(F)F)c3)cc2)NC(=N)N([C@H](COC(=O)NC(C)(C)C)c2ccc(Cl)c(-c3ncn[nH]3)c2)C1=O [Compound 68],–,–,21.6,–
CC(C)(C[C@]1(c2ccc(-c3cnn(C4CC4)n3)cc2)NC(=N)N([C@H](COC(=O)NC2(C(F)(F)F)CC2)c2ccc(Cl)c(-c3ncnn3C3CC3)c2)C1=O)C(F)(F)F [Compound 159],–,–,10.9,–
C[C@H](C(=O)NC[C@H](c1ccc(Cl)c(-n2ncnc2C(F)F)c1)N1C(=N)N[C@](CC(C)(C)C)(c2ccc(-c3cnn(C4CC4)n3)cc2)C1=O)C(F)(F)F [Compound 385],–,–,12.8,–
CC(C)(C)C[C@]1(c2ccc(-c3cnn(C(F)F)c3)cc2)NC(=N)N([C@H](COC(=O)N2CC(F)(F)C2)c2ccc(Cl)c(-n3cccn3)c2)C1=O [Compound 261],–,–,29,–
[H]/N=C1\N[C@](CC(C)(C)C)(c2ccc(-c3cnn(C(F)F)c3)cc2F)C(=O)N1[C@H](COC(=O)NC1CC1)c1ccc(Cl)c(-c2ncn[nH]2)c1 [Compound 11],–,–,35.5,–
CC(C)(C)C[C@]1(c2ccc(-c3cnn(C(F)F)c3)cc2)NC(=N)N([C@H](COC(=O)Nc2ccccc2)c2ccc(Cl)c(-n3ncnc3C(F)F)c2)C1=O [Compound 180],–,–,–,23.7
"CC(C)(C)C[C@]1(c2ccc(-c3cnn(C(F)F)c3)cc2)NC(=N)N([C@H](COC(=O)N[C@@H]2CC2(F)F)c2ccc(Cl)c(-n3ncnc3C(F)F)c2)C1=O (single isomer, unassigned) [Compound 334]",–,–,8.98,–

# Second part, led by results:
half-life at 1 uM ([2]; liver microsomes) [h],half-life at 1 uM ([2]; human liver microsomes) [h],SMILES,"EC50 [1, 3] [nM]","EC50 ([1]; MT4, read-out: MT4 EC50 (nM)) [nM]"
≥ 6.58,–,CC(C)(C#N)C[C@]1(c2ccc(-c3ccn(C(F)F)n3)cc2)NC(=N)N([C@H](COC(=O)NC2(C(F)(F)F)CC2)c2ccc(Cl)c(-n3ncnc3C(F)F)c2)C1=O [Compound 336],74.7,–
≥ 6.58,–,C[C@H](NC(=O)OC[C@H](c1ccc(Cl)c(-c2ncnn2C(F)F)c1)N1C(=N)N[C@](CC(C)(C)C(F)(F)F)(c2ccc(-c3cnn(C4CC4)n3)cc2)C1=O)C(F)(F)F [Compound 153],14,–
≥ 6.58,–,CC(C)(C[C@]1(c2ccc(-c3cnn(C4CC4)n3)cc2)NC(=N)N([C@H](CNC(=O)OC2CC2)c2ccc(Cl)c(-n3ncnc3C(F)F)c2)C1=O)C(F)(F)F [Compound 392],24.3,–
≥ 6.58,–,CC(C)(C)C[C@]1(c2ccc(-c3cnn(S(C)(=O)=O)c3)c(F)c2)NC(=N)N([C@H](COC(=O)NC2(C(F)(F)F)CC2)c2ccc(Cl)c(-n3ncnc3C(F)F)c2)C1=O [Compound 290],11.6,–
≥ 6.58,–,CC(C[C@]1(c2ccc(-c3cnn(C(F)F)c3)cc2)NC(=N)N([C@H](COC(=O)NC2(C(F)(F)F)CC2)c2ccc(Cl)c(-n3ncnc3C(F)F)c2)C1=O)CS(C)(=O)=O (stereo partly drawn) [Compound 345],134,–
≥ 6.58,–,CC(C)(C[C@]1(c2ccc(-c3cnn(S(C)(=O)=O)c3)cc2)NC(=N)N([C@H](COC(=O)NC2(C(F)(F)F)CC2)c2ccc(Cl)c(-n3ncnc3C(F)F)c2)C1=O)C(F)(F)F [Compound 308],16.3,–
≥ 6.58,–,CC(C)(C)C[C@]1(c2ccc(-c3cnn(S(=O)(=O)C4CC4)c3)c(F)c2)NC(=N)N([C@H](COC(=O)NC2(C(F)(F)F)CC2)c2ccc(Cl)c(-n3ncnc3C(F)F)c2)C1=O [Compound 291],11.8,–
≥ 6.58,–,CC(C)(C)C[C@]1(c2ccc(C#Cc3cnn(C(F)F)c3)c(F)c2)NC(=N)N([C@H](COC(=O)NC2(C(F)(F)F)CC2)c2ccc(Cl)c(-n3ncnc3C(F)F)c2)C1=O [Compound 361],82,–
–,≥ 6.58,CC(C)(C)C[C@]1(c2ccc(-n3ccnn3)cc2)NC(=N)N([C@H](COC(=O)NC2(C(F)(F)F)CC2)c2ccc(Cl)c(-n3ncnc3C(F)F)c2)C1=O [Compound 351],17.9,–
≥ 6.58,–,CC(C)(C)C[C@]1(c2ccc(-c3cnn(S(C)(=O)=O)c3)c(F)c2)NC(=N)N([C@H](COC(=O)NC2(C(F)F)CC2)c2ccc(Cl)c(-n3ncnc3C(F)F)c2)C1=O [Compound 303],11.2,–
≥ 6.58,–,CC(C)(C)C[C@]1(c2ccc(-c3cnn(C(F)F)c3)cc2)NC(=N)N([C@H](COC(=O)NC(C)(C)C(F)(F)F)c2ccc(Cl)c(-n3ncnc3C(F)F)c2)C1=O [Compound 182],12,–
≥ 6.58,–,C[C@H](NC(=O)OC[C@H](c1ccc(Cl)c(-n2ncnc2C(F)F)c1)N1C(=N)N[C@](CC(C)(C)C)(c2ccc(-c3cn(C4(C(F)(F)F)CC4)nn3)cc2)C1=O)C(F)(F)F [Compound 363],11.7,–
